Data on 10 molecules can be found in patent US11345666B2, “Phenyl and pyridinyl substituted imidazoles as modulators of RORγT” (Janssen Pharmaceutica NV, priority 2018, dated 2022).

Structures are written as SMILES. pIC50, pKd: −log10 of the molar value.

A word on the pIC50: it is the IC50 on a negative log10 scale, so that one unit is a factor of ten. For orientation: pKd means the Kd on a negative log10 scale, so that one unit is a factor of ten. A low value points to a high Kd.

The target of one test is full-length human RORγt (Homo sapiens (Human), UniProt P51449). The experiment in a line: RORγt (full-length human) reporter assay, conditions A or B. It counts as cell-based. The following applies: for pIC50: HEK293T cells, read-out: RORγt (FL) Reporter Assay A or B, IC50; for inhibition at 6 µM: read-out: RORγt (FL) Reporter Assay A or B, % inhibition @ 6 μM, 6 μM compound concentration. An excerpt: RORγt (Full-Length Human) Reporter Assay:
Cells used in this assay were transiently co-transfected with three different plasmids, one expressing the GAL4-DNA binding domain (DBD)-RORγt fusion protein under control of a CMV promoter (NH2-Gal4-DBD:RORC—COOH in pCMV-BD, Stratagene #211342), and two reporter plasmids—the firefly luciferase reporter under control of a GAL4 promoter (pFR-Luc 2×GAL4) and Renilla luciferase reporter under control of CMV promoter (pRL-CMV, Promega #E2261). […] HEK293T cells were plated at 35,000 per well in 96-well plate in medium of DMEM with 10% FBS. After 18-22 hours incubation, the transfection was carried out by using a PEI solution with 170.5 ng total DNA/well (50 ng pCMV-BD-ROR plus 20 ng of pFR-Luc reporter and 0.5 ng of pRL-CMV reporter plus 100 ng Carrier DNA (Clontech #630440) for each well). 4-6 hours after transfection, cells were treated with compounds for overnight in the medium with final concentration of FBS 1.3% and DMSO 0.1%. After overnight (16 to 20 hours) incubation, media were removed and cells were lysed with […] Glo Lysis Buffer (Promega) for 10-15 minutes followed by 10 minute incubation with 50 μL Dual Glo reagent (Promega) at room temperature. Firefly luciferase luminescence was measured using a BMG Pherastar plate reader. To each well, 50 μL Stop and Glo reagent was added and incubated for 10 minutes at room temperature. Renilla luminescence was measured using a BMG Pherastar plate reader. To calculate the effect of compounds on RORγt activity, firefly values were normalized against values of DMSO only and values of reference compound at saturating concentration, then further normalized against Renilla signals. IC50s were generated by plotting final Renilla normalized data against compound concentration and percent inhibition was calculated against DMSO control.
Cells used in this assay were transiently co-transfected with three different plasmids, one expressing the GAL4-DNA binding domain (DBD)-RORγt fusion protein under control of a CMV promoter (NH2-Gal4-DBD:RORC—COOH in pCMV-BD, Stratagene #211342), and two reporter plasmids—the firefly luciferase reporter under control of a GAL4 promoter (pFR-Luc 2×GAL4) and Renilla luciferase reporter under control of CMV promoter (pRL-CMV, Promega #E2261). […] HEK293T cells were plated at 8750 cells per well in 384-well plate in medium of DMEM with 10% FBS. After 18-22 hours incubation, the transfection was carried out by using a PEI solution with 42.6 ng total DNA/well (12.5 ng pCMV-BD-ROR plus 5 ng of pFR-Luc reporter and 0.125 ng of pRL-CMV reporter plus 25 ng Carrier DNA (Clontech #630440) for each well). 4-6 hours after transfection, cells were treated with compounds for overnight in the medium with final concentration of FBS 1.3% and DMSO 0.1%. After overnight (16 to 20 hours) incubation, media were removed and cells were lysed with 20 μL Glo Lysis Buffer (Promega) for 10-15 minutes followed by 10 minute incubation with 20 μL Dual Glo reagent (Promega) at room temperature. Firefly luciferase luminescence was measured using a BMG Pherastar plate reader. To each well, 20 μL Stop and Glo reagent was added and incubated for 10 minutes at room temperature. Renilla luminescence was measured using a BMG Pherastar plate reader. To calculate the effect of compounds on RORγt activity, firefly values were normalized against values of DMSO only and values of reference compound at saturating concentration, then further normalized against Renilla signals. IC50s were generated by plotting final Renilla normalized data against compound concentration and percent inhibition was calculated against DMSO control.

The target in test [1] is human RORγt ligand binding domain (RORγt LBD) (Homo sapiens (Human), UniProt P51449). The experiment in a line: RORγt ThermoFluor assay. The text has this: ThermoFluor® is a fluorescence based assay that estimates ligand binding affinities by measuring the effect of a ligand on protein thermal stability (Pantoliano, M. W., Petrella, E. C., Kwasnoski, J. D., Lobanov, V. S., Myslik, J., Graf, E., Carver, T., Asel, E., Springer, B. A., Lane, P., and Salemme, F. R. (2001) High-density miniaturized thermal shift assays as a general strategy for drug discovery. J Biomol Screen 6, 429-40, and Matulis, D., Kranz, J. K., Salemme, F. R., and Todd, M. J. (2005) Thermodynamic stability of carbonic anhydrase: measurements of binding affinity and stoichiometry using ThermoFluor. Biochemistry 44, 5258-66). This approach is applicable to a wide variety of systems, and rigorous in theoretical interpretation through quantitation of equilibrium binding constants (KD).
Sequence of human RORγt ligand binding domain (RORγt LBD) (P51449 other isoform, or with tags, fused parts or gaps): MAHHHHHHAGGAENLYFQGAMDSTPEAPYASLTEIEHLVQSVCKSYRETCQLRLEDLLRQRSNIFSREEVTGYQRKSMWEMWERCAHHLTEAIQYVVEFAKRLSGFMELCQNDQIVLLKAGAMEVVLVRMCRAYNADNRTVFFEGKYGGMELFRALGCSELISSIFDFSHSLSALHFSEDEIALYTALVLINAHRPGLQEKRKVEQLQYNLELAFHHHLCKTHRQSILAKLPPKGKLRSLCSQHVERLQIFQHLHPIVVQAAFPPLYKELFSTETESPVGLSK
The shift in the melting point described as a ΔTm is proportional to the concentration and affinity of the ligand.
RORγt ThermoFluor® Assay Construct
Nucleotides 850-1635 (SEQ ID NO:2) coding for the wild type human RORγt ligand binding domain (RORγt LBD) were cloned into the pHIS 1 vector, a modified pET E. coli expression vector (Accelagen, San Diego), containing an in-frame N-terminal His-tag and a TurboTEV protease cleavage site (ENLYFQG, SEQ ID NO:3) upstream of the cloned insert sequence. The amino acid sequence for the RORγt construct used in the Thermofluor® assay is shown as SEQ ID NO:4.
ThermoFluor® experiments were carried out using instruments owned by Janssen Research and Development, L.L.C. through its acquisition of 3-Dimensional Pharmaceuticals, Inc. 1,8-ANS (Invitrogen) was used as a fluorescent dye. Protein and compound solutions are dispensed into black 384-well polypropylene PCR microplates (Abgene) and overlayed with silicone oil (1 μL, Fluka, type DC 200) to prevent evaporation.
Bar-coded assay plates are robotically loaded onto a thermostatically controlled PCR-type thermal block and then heated at a typical ramp-rate of 1° C./min for all experiments. Fluorescence was measured by continuous illumination with UV light (Hamamatsu LC6) supplied via fiber optic and filtered through a band-pass filter (380-400 nm; >6 OD cutoff). Fluorescence emission of the entire 384-well plate was detected by measuring light intensity using a CCD camera (Sensys, Roper Scientific) filtered to detect 500±25 nm, resulting in simultaneous and independent readings of all 384 wells. Images were collected at each temperature, and the sum of the pixel intensity in a given area of the assay plate was recorded versus temperature. Reference wells contained RORγt without compounds, and the assay conditions were as follows: • 0.065 mg/mL RORγt • 60 μM 1,8-ANS • 100 mM Hepes, pH 7.0 • 10 mM NaCl • 2.5 mM GSH • 0.002% Tween-20
Project compounds were arranged in a pre-dosed mother plate (Greiner Bio-one) wherein compounds are serially diluted in 100% DMSO by 1:2 from a high concentration of 10 mM over 12 columns within a series (column 12 is a reference well containing DMSO, no compound). The compounds were robotically dispensed directly into assay plates (1×=46 nL) using a Hummingbird capillary liquid handling instrument (Digilab). Following compound dispense, protein and dye in buffer was added to achieve the final assay volume of 3 μL, followed by 1 μL of silicone oil.
The binding affinity was estimated as described previously (Matulis, D., Kranz, J. K., Salemme, F. R., and Todd, M. J. (2005) Thermodynamic stability of carbonic anhydrase: measurements of binding affinity and stoichiometry using ThermoFluor®. Biochemistry 44, 5258-66) using the following thermodynamic parameters of protein unfolding: […]

Sequence of full-length human RORγt (P51449 other isoform, or with tags, fused parts or gaps): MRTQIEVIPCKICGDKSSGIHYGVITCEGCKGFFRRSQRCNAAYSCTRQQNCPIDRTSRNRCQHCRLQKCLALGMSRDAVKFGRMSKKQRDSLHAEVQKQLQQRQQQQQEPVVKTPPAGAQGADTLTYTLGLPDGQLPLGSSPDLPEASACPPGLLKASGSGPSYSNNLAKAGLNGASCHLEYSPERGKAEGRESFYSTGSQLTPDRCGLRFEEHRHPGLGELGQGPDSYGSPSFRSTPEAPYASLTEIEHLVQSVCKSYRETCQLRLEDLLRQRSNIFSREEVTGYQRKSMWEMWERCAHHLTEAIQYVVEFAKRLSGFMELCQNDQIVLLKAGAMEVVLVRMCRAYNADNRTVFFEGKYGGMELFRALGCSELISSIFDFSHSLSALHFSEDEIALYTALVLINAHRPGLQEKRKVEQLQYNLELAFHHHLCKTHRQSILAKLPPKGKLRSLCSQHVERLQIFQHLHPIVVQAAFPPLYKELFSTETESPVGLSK

Regarding `CCc1nc(C(=O)NC[C@]2(O)CC[C@@H](S(C)(=O)=O)CC2)c(C)n1-c1ncc(CC(C)(C)C(F)(F)F)cc1OC(F)F` [Example 50, 1-(3-(Difluoromethoxy)-5-(3,3,3-trifluoro-2,2-dimethylpropyl)pyridin-2-yl)-2-ethyl-N-(((1s,4s)-1-hydroxy-4-(methylsulfonyl)cyclohexyl)methyl)-5-methyl-1H-imidazole-4-carboxamide], on full-length human RORγt, the pIC50 is 6.92 and the inhibition at 6 µM turned out to be 90%. Take `CCc1nc(C(=O)NC[C@]2(O)CC[C@@H](S(C)(=O)=O)CC2)c(Cl)n1-c1ccc(CC(C)(C)C(F)(F)F)c(F)c1` [Example 104, 5-Chloro-2-ethyl-1-(3-fluoro-4-(3,3,3-trifluoro-2,2-dimethylpropyl)phenyl)-N-(((1s,4s)-1-hydroxy-4-(methylsulfonyl)cyclohexyl)methyl)-1H-imidazole-4-carboxamide]: the negative logarithm of the Kd (pKd) in test [1] is 8.27. Regarding `CCc1nc(C(=O)NC[C@]2(O)CC[C@@H](S(C)(=O)=O)CC2)c(Cl)n1-c1ncc(CCCC(F)(F)F)cc1OC(F)F` [Example 47, 5-Chloro-1-(3-(difluoromethoxy)-5-(4,4,4-trifluorobutyl)pyridin-2-yl)-2-ethyl-N-(((1s,4s)-1-hydroxy-4-(methylsulfonyl)cyclohexyl)methyl)-1H-imidazole-4-carboxamide], on full-length human RORγt, the pIC50 is 6.47 and the inhibition at 6 µM is 98%. On the same counts, the results for `CCc1nc(C(=O)NC[C@]2(O)CC[C@@H](S(C)(=O)=O)CC2)c(C#N)n1-c1cnc(CCC(F)(F)F)cc1OC` [Example 118, 5-Cyano-2-ethyl-N-(((1s,4s)-1-hydroxy-4-(methylsulfonyl)cyclohexyl)methyl)-1-(4-methoxy-6-(3,3,3-trifluoropropyl)pyridin-3-yl)-1H-imidazole-4-carboxamide] are 5.62 and 54%. For the molecule `CCc1nc(C(=O)NC[C@]2(O)CC[C@@H](S(C)(=O)=O)CC2)c(Cl)n1-c1ncc(CC(C)(C)CC(F)(F)F)cc1OC(F)F` [Example 107, 5-Chloro-1-(3-(difluoromethoxy)-5-(4,4,4-trifluoro-2,2-dimethylbutyl)pyridin-2-yl)-2-ethyl-N-(((1s,4s)-1-hydroxy-4-(methylsulfonyl)cyclohexyl)methyl)-1H-imidazole-4-carboxamide], the inhibition at 3 µM on full-length human RORγt (3 μM compound concentration (*), read-out: RORγt (FL) Reporter Assay A or B, % inhibition) was 85%. `CCc1nc(C(=O)NC[C@H]2CC[C@H](S(C)(=O)=O)CC2)c(Cl)n1-c1ccc(CC(C)(C)C(F)(F)F)c(F)c1` [Example 103, 5-Chloro-2-ethyl-1-(3-fluoro-4-(3,3,3-trifluoro-2,2-dimethylpropyl)phenyl)-N-(((1r,4r)-4-(methylsulfonyl)cyclohexyl)methyl)-1H-imidazole-4-carboxamide] gave a pKd in test [1] of 8.36. Turning to `CCc1nc(C(=O)NC[C@H]2CC[C@H](S(C)(=O)=O)CC2)c(C)n1-c1ccc(CC(C)C(F)(F)F)cc1OC` (single isomer, unassigned) [Example 8], the negative-log IC50 (pIC50) on full-length human RORγt is 6.80. Also, the inhibition at 0.67 µM on full-length human RORγt (read-out: RORγt (FL) Reporter Assay A or B, % inhibition, 0.67 μM compound concentration (****)) was determined as 66%. `CCc1nc(C(=O)NC[C@]2(O)CC[C@@H](S(C)(=O)=O)CC2)c(C)n1-c1ncc(CCCC(F)(F)F)cc1OC(F)F` [Example 52, 1-(3-(Difluoromethoxy)-5-(4,4,4-trifluorobutyl)pyridin-2-yl)-2-ethyl-N-(((1s,4s)-1-hydroxy-4-(methylsulfonyl)cyclohexyl)methyl)-5-methyl-1H-imidazole-4-carboxamide]: on full-length human RORγt, the inhibition at 6 µM is 78%. `CCc1nc(C(=O)NC[C@H]2CC[C@H](S(C)(=O)=O)CC2)c(Cl)n1-c1ncc(CCCC(F)(F)F)cc1OC(F)F` [Example 48, 5-Chloro-1-(3-(difluoromethoxy)-5-(4,4,4-trifluorobutyl)pyridin-2-yl)-2-ethyl-N-(((1r,4r)-4-(methylsulfonyl)cyclohexyl)methyl)-1H-imidazole-4-carboxamide]: on full-length human RORγt, the pIC50 was 7.30 and the inhibition at 6 µM stood at 104%. Turning to `CCc1nc(C(=O)NC[C@]2(O)CC[C@@H](S(C)(=O)=O)CC2)c(Cl)n1-c1ccc(CC(C(F)(F)F)C(F)(F)F)c(F)c1` [Example 105, 5-Chloro-2-ethyl-1-(3-fluoro-4-(3,3,3-trifluoro-2-(trifluoromethyl)propyl)phenyl)-N-(((1s,4s)-1-hydroxy-4-(methylsulfonyl)cyclohexyl)methyl)-1H-imidazole-4-carboxamide], at full-length human RORγt (0.22 μM compound concentration (******), read-out: RORγt (FL) Reporter Assay A or B, % inhibition), the inhibition at 0.22 µM is 80%. Moreover, on full-length human RORγt, the negative-log IC50 (pIC50) was 7.28.
